The values below come from ChEMBL document CHEMBL1124608, “Synthesis of acylguanidine analogues: inhibitors of ADP-induced platelet aggregation” (J Med Chem, 1989).

The structures appear in SMILES notation. Converted amounts (≈) assume the structure as drawn. “And” between values parts separate entries of the source, which are not always exact repeats. Equal values may be shown once. The source made the active and inactive calls. The calls are words filed in the database; no cut-off is given here.

Assay [1] has as its system Cavia porcellus. Nature of the assay: ADP-induced platelet aggregation activity was tested for oral activity in guinea pigs at dose 100 mg/kg. The class given is functional.
Assay [2] in a line: Inhibitory concentration required to inhibit ADP-induced platelet aggregation in human platelet rich plasma. The class given is functional, cell-free.
Assay [3] relates to Rattus norvegicus. Description: ADP-induced platelet aggregation activity was tested for oral activity in rats at dose 30 mg/kg. The class given is functional.
Assay [4] concerns Rattus norvegicus. Description: ADP-induced platelet aggregation activity was tested for oral activity in rats at dose 100 mg/kg. The class given is functional.
The nature of assay [5]: Concentration required to inhibit in vitro ADP-induced platelet aggregation in human platelet rich plasma relative PGE1. Format: functional.
A short description of assay [6]: Inhibitory activity against ADP-induced platelet aggregation at concentration 32 ng/mL. Format: functional, Homo sapiens.
Assay [7] in a line: Inhibitory activity against ADP-induced platelet aggregation at concentration 10 ng/mL. Format: functional, Homo sapiens.
Assay [8] is described as follows: Inhibitory activity against ADP-induced platelet aggregation at concentration 3.2 ug/mL. The class given is functional, Homo sapiens.
The nature of assay [9]: Inhibitory activity against ADP-induced platelet aggregation at concentration 1.0 ug/mL. Format: functional. The settings on record: Homo sapiens.
Assay [10] has as its system Cavia porcellus. Description: ADP-induced platelet aggregation activity was tested for oral activity in guinea pigs at dose 50 mg/kg.
Assay [11] in a line: Inhibitory activity against ADP-induced platelet aggregation at concentration 10 ug/mL. Format: functional, Homo sapiens. The following applies: for inhibition at 10 µg/mL: Homo sapiens.
The species entered for assay [12] is Homo sapiens. Nature of the assay: Activity against PRP following incubation for 30 min in human whole blood; Active. The class given is functional, tissue-based.
The test system of assay [13] is Rattus norvegicus. Nature of the assay: ADP-induced platelet aggregation activity was tested for oral activity in rats at dose 25 mg/kg. The class given is functional.
The test system of assay [14] is Rattus norvegicus. Nature of the assay: ADP-induced platelet aggregation activity was tested for oral activity in rats at dose 50 mg/kg. Format: functional.
Assay [15] has as its system Cavia porcellus. Nature of the assay: ADP-induced platelet aggregation activity was tested for oral activity in guinea pigs at dose 50 mg/kg. Format: functional.
Assay [16] is described as follows: Inhibitory activity against ADP-induced platelet aggregation at concentration 1 ug/mL. Format: functional, Homo sapiens.
The test system of assay [17] is Cavia porcellus. Nature of the assay: ADP-induced platelet aggregation activity was tested for oral activity in guinea pigs at dose 30 mg/kg. Format: functional.
For assay [18], the species on record is Homo sapiens. Description: Activity against PRP following incubation for 30 min in human whole blood; Inactive. Format: functional, tissue-based.

Take `CN(CCCCCCN(C)C(=O)N(C(=NC1CCCCC1)N1CCOCC1)C1CCCCC1)C(=O)N(C(=NC1CCCCC1)N1CCOCC1)C1CCCCC1`: the Aggregation in [1] is 41%; in assay [3] it was 81.2%; in [4], 52%. For the same compound, 3.2 µg/mL (≈ 4.09 µM) corresponded to half-maximal inhibition in [2] (IC50). Besides, in [5], the Relative potency amounted to 0.003.
In [2], `O=C(NCCCCCNC(=O)N(C(=NC1CCCCC1)N1CCOCC1)C1CCCCC1)N(C(=NC1CCCCC1)N1CCOCC1)C1CCCCC1` gave an IC50 of 10 µg/mL (≈ 13.5 µM). Also, the Aggregation in assay [4] was 41%. Moreover, in assay [5], the Relative potency was found to be 0.001.
Turning to `O=C(NCCCCCCCNC(=O)N(C(=NC1CCCCC1)N1CCOCC1)C1CCCCC1)N(C(=NC1CCCCC1)N1CCOCC1)C1CCCCC1`, in assay [2], the half-maximal inhibitory concentration (IC50) stood at 10 µg/mL (≈ 13 µM). For the same compound, in assay [4], the Aggregation was found to be 70.5%. Also, the Relative potency in [5] is 0.001.
As to `CCCCC[C@H](O)/C=C/[C@H]1[C@H](O)CC(=O)[C@@H]1CCCCCCC(=O)O` [ALPROSTADIL], the Inhibition in assay [6] was 94% and 90% and 72%; in assay [7], 56% and 28% and 37%. The IC50 in assay [2] worked out at 0.01 µg/mL (≈ 0.0282 µM). This compound yielded a Relative potency in assay [5] of 1.
`O=C(NCCCCCCCCCNC(=O)N(C(=NC1CCCCC1)N1CCOCC1)C1CCCCC1)N(C(=NC1CCCCC1)N1CCOCC1)C1CCCCC1` came in with an IC50 in [2] of 10 µg/mL (≈ 12.5 µM). The compound also came in with a Relative potency in assay [5] of 0.001.
On the same counts, the results for `O=C(NCCCCCCCCNC(=O)N(C(=NC1CCCCC1)N1CCOCC1)C1CCCCC1)N(C(=NC1CCCCC1)N1CCOCC1)C1CCCCC1` are 10 µg/mL (≈ 12.8 µM) and 0.001.
`O=C(N1CCN(C(=O)N(/C(=N/C2CCCCC2)N2CCOCC2)C2CCCCC2)CC1)N(/C(=N/C1CCCCC1)N1CCOCC1)C1CCCCC1` registered an IC50 in [2] of 10 µg/mL (≈ 13.8 µM). For the same compound, in assay [4], the Aggregation stood at 44.8%. Besides, in assay [5], the Relative potency was found to be 0.001.
`O=C(NCc1cccc(CNC(=O)N(C(=NC2CCCCC2)N2CCOCC2)C2CCCCC2)c1)N(C(=NC1CCCCC1)N1CCOCC1)C1CCCCC1`: at 3.2 µg/mL the inhibition in assay [8] (Homo sapiens) was 40%. The compound further returned an inhibition at 1 µg/mL in [9] of 27%. The compound further yielded an Aggregation in assay [10] of 19.3%. For the same compound, 3.2 µg/mL (≈ 4.13 µM) corresponded to half-maximal inhibition in assay [2] (IC50). In assay [11], this compound registered an inhibition at 10 µg/mL of 68%. The result in assay [12] was Active. The Relative potency in [5] was determined as 0.003.
For the compound `O=C(NCCCCCCNC(=O)N(C(=NC1CCCCC1)N1CCCCC1)C1CCCCC1)N(C(=NC1CCCCC1)N1CCCCC1)C1CCCCC1`, the Aggregation came out at 83.2% in assay [13]; 48.7% in [1]; 86% in assay [14]; 47.7% in assay [15]; 46.2% in assay [4]. In assay [2], this compound came in with a concentration for half-maximal inhibition (IC50) of 10 µg/mL (≈ 13.3 µM). For the same compound, the Relative potency in [5] was 0.001.
Take `O=C(NCCCCNC(=O)N(C(=NC1CCCCC1)N1CCOCC1)C1CCCCC1)N(C(=NC1CCCCC1)N1CCOCC1)C1CCCCC1`: the midpoint of inhibition in assay [2], the IC50, lay at 10 µg/mL (≈ 13.8 µM). Further, the Aggregation in assay [4] is 73.5%. This compound also had a Relative potency in assay [5] of 0.001.
For `CN(Cc1cccc(CN(C)C(=O)N(C(=NC2CCCCC2)N2CCOCC2)C2CCCCC2)c1)C(=O)N(C(=NC1CCCCC1)N1CCOCC1)C1CCCCC1` the same measures were 3.2 µg/mL (≈ 3.98 µM), 38.5% and 0.003.
Take `O=C(NCCCCCCNC(=O)N(C(=NC1CCCCC1)N1CCOCC1)C1CCCCC1)N(C(=NC1CCCCC1)N1CCOCC1)C1CCCCC1`: the Inhibition in [8] is 38% and 62%; in assay [16], 27%; in assay [11], 85%. Besides, the IC50 in assay [2] turned out to be 3.2 µg/mL (≈ 4.24 µM). For the same compound, in [16] (Homo sapiens), the inhibition at 1 µg/mL was 29%. In assay [11], 10 µg/mL produced 82% inhibition. Further, the outcome in assay [12] was Active. The compound further gave an Aggregation in assay [4] of 80.8%. The compound further returned a Relative potency in assay [5] of 0.003.
For the compound `CN(CCN(C)C(=O)N(C(=NC1CCCCC1)N1CCOCC1)C1CCCCC1)C(=O)N(C(=NC1CCCCC1)N1CCOCC1)C1CCCCC1`, the Aggregation in assay [1] came to 0%; in assay [17] it was 62.7%; in assay [4] it was 100%. Further, in assay [2], 3.2 µg/mL (≈ 4.4 µM) corresponded to half-maximal inhibition (IC50). The compound also came in with a Relative potency in assay [5] of 0.003.
In assay [2], `O=C(NCc1cc(CNC(=O)N(C(=NC2CCCCC2)N2CCOCC2)C2CCCCC2)cc(CNC(=O)N(C(=NC2CCCCC2)N2CCOCC2)C2CCCCC2)c1)N(C(=NC1CCCCC1)N1CCOCC1)C1CCCCC1` returned a half-maximal inhibitory concentration (IC50) of 10 µg/mL (≈ 8.9 µM). The outcome in assay [18] was inactive. In assay [5], this compound displayed a Relative potency of 0.001.
`Cl.Cl.O=C(NCCCCCCNC(=O)N(/C(=N/C1CCCCC1)N1CCOCC1)C1CCCCC1)N(/C(=N\C1CCCCC1)N1CCOCC1)C1CCCCC1`: in [2], the IC50 was 10 µg/mL. In [4], the Aggregation was 84.5%. Also, the Relative potency in [5] amounted to 0.001.

One may read the IC50 as the point on the concentration scale where inhibition reaches its midpoint. Higher therefore signals weaker potency. By Inhibition is commonly meant the relative decrease from the control value, in per cent. Low values mean little suppression, high ones strong suppression. Broadly, the inhibition is the change of the read-out against control, counted positive when it falls.
